3 compounds from patent publication EP4755886A1 (Chengdu Chipscreen Pharmaceutical Ltd., priority 2023, dated 2025) can be followed below.

Where two headings read alike, the source gives them in different places.

The subject of one data set is wild-type HCT-116 cells. Briefly: Cell proliferation (MTS), wild-type HCT-116. Type of data set: cell-based. The conditions noted are these: Homo sapiens, 240 h; wild-type HCT-116, 10 days with compound, MTS reading; read-out: IC50 HCT116 WT. In a few lines: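 Wild-type HCT-116 cells were seeded at 100 cells/well in McCoy's 5A/10% FBS. From day 1 they were treated with compound in 3-fold dilutions (initial 20 µM, 8 points) for 10 days at 37° C. Proliferation was read by MTS on day 11, and IC50 was obtained from a four-parameter logistic fit.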

A further data set is described as follows: PK experiment in mice. The note with it: mouse, plasma, po, 10 mg/kg.
For a further data set, the target named is T1, CYP450 enzyme 3A4 (Homo sapiens, UniProt P08684).
T1 construct: Liver microsomes (purchased from BIOIVT, Cat. No.: X008070); tissue BIOIVT X008070; host or cells: human liver microsomes
Briefly: CYP inhibition test in human liver microsomes. The conditions noted are these: human liver microsomes 0.1 mg/mL. Type of data set: in vitro ADME. On the procedure: Experimental materials: human liver microsomes (purchased from BIOIVT);
PBS: 0.1 M KH2PO4 and K2HPO4 buffers, pH 7.4.
MgCl2: a certain amount of MgCl2 was weighed out and prepared into a 20 mM MgCl2 solution with PBS.
NADPH (Chinese name: reduced nicotinamide adenine dinucleotide phosphate, purchased from Sigma, Cat. No.: 481973-500 mg): a certain amount of NADPH was weighed out and a 5 mM solution of NADPH was prepared with a 20 mM MgCl2 solution, and the final incubation concentration was 1 mM.
Compounds: 3 mM, 1 mM, 0.3 mM, 0.1 mM, 0.03 mM, 0.01 mM, and 0 mM solutions of the test compounds were prepared with a DMSO-methanol (v:v = 1:9) solution, and the final incubation concentrations were 30 µM, 10 µM, 3 µM, 1 µM, 0.3 µM, 0.1 µM, and 0 µM. 30 µM, 10 µM, 3 µM, 1 µM, 0.3 µM, and 0 µM solutions of the positive compound (ketoconazole) were prepared with a DMSO-methanol (v:v = 1:9) solution, and the final incubation concentrations were 0.3 µM, 0.1 µM, 0.03 µM, 0.01 µM, 0.003 µM, and 0 µM.
Substrate working solutions: 200 µM and 15 µM solutions of substrate working solutions (testosterone and midazolam) were prepared with PBS, separately, and the final incubation concentrations were 40 µM and 3 µM.
Liver microsomes (purchased from BIOIVT, Cat. No.: X008070): the liver microsomes were diluted to […] with PBS, and the final incubation concentration was 0.1 mg/mL.
The prepared test compounds or positive compounds were added to a 96-well plate, and then the prepared human liver microsome working solution and substrate working solution were added. The mixture was mixed well. The mixture was pre-incubated in a thermostat incubator at 37 °C for 5 min, and then the prepared NADPH was added to start the reaction. The mixture was incubated for 5 min or 10 min. After the incubation was completed, a pre-cooled acetonitrile solution containing an internal standard was added to terminate the reaction. After protein precipitation, the mixture was vortexed for 5 min with shaking and then centrifuged at 4000 rpm for 10 min. The supernatant was collected and added to the 96-well plate. The content (peak concentration ratio) of the metabolites of the substrate was determined by an LC-MS/MS method. The residual activity and the half maximal inhibitory concentration (IC50) of the enzyme were calculated based on the detected content.
Percentage of remaining enzyme activity: The activity of each subtype of CYP450 enzyme was expressed as the amount of metabolite produced, and the percentage of remaining enzyme activity was calculated as follows: [formula]
The concentrations of the test substances and the corresponding residual activity percentages were fitted using a nonlinear model of Excel software, and the concentration of the test substances at which 50% inhibition of metabolite production was achieved was the IC50 value.

A further data set in a line: PK experiment in rats. Type of data set: in vivo. The conditions noted are these: rat; SD male rats, PO 10 mg/kg, vehicle 0.5% MC/0.2% Tween 80, plasma. As for the experimental part: The samples were analyzed by LC-MS/MS. […] Table 6. Pharmacokinetic parameters for rats
Where [1] appears, read: substrate midazolam 3 µM, read-out: IC50 3A4-Midazolam.
[2] abbreviates: substrate testosterone 40 µM, read-out: IC50 3A4-Testosterone.

What is called IC50 is the midpoint of a concentration-inhibition curve. The term AUC(0-t) denotes exposure summed from dosing to a finite time, without extrapolation to infinity. A lower AUC(0-t) goes with less exposure. By Cmax is commonly meant the peak of the concentration-time curve.

T1 sequence (P08684 whole entry): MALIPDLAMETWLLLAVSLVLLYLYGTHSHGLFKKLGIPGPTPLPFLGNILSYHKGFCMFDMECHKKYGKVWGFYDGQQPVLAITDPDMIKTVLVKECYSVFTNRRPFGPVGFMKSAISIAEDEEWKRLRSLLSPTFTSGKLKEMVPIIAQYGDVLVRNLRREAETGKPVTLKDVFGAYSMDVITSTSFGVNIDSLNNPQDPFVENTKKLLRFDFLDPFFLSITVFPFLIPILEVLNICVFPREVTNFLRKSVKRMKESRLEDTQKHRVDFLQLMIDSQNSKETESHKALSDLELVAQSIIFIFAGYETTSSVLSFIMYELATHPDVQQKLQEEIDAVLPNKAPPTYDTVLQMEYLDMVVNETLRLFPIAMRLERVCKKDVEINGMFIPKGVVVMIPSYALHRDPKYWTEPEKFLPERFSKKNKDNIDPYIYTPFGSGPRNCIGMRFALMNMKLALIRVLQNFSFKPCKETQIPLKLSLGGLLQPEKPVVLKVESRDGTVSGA

On to `CN(C(=O)c1cc2c(cc1F)nc(N)c1cnn(C)c12)[C@@H]1COc2cc(C#Cc3cnn(C)c3)ccc21` [Compound 5A, (S)-4-amino-7-fluoro-N,1-dimethyl-N-(6-((1-methyl-1H-pyrazol-4-yl)ethynyl)-2,3-dihydrobenzofuran-3-yl)-1H-pyrazolo[4,3-c]quinoline-8-carboxamide], for which the IC50 is 0.17 µM in the data set on wild-type HCT-116 cells, greater than 30 µM at CYP450 enzyme 3A4 (setting [1]) and greater than 30 µM on CYP450 enzyme 3A4 (setting [2]). The AUC(0-t) in the data set “PK experiment in mice” came out at 15700 ± 1600 ng·h/mL; in “PK experiment in rats”, 15600 ± 4640 ng·h/mL. Further, the results for the maximum concentration (Cmax) in “PK experiment in mice” and in “PK experiment in rats” were 2220 ± 230 ng/mL and 2180 ± 777 ng/mL, respectively.

As to `Cc1nn(C)cc1C#Cc1ccc2c(c1)OC[C@H]2N(C)C(=O)c1cc2c3c(c(N)nc2cc1Cl)COC3` [Compound 50A, (S)-4-amino-7-chloro-N-(6-((1,3-dimethyl-1H-pyrazol-4-yl)ethynyl)-2,3-dihydrobenzofuran-3-yl)-N-methyl-1,3-dihydrofuro[3,4-c]quinoline-8-carboxamide], the IC50 was 0.431 µM with wild-type HCT-116 cells, greater than 30 µM at CYP450 enzyme 3A4 (setting [1]) and greater than 30 µM on CYP450 enzyme 3A4 (setting [2]).

As for `CN(C(=O)c1cc2c3c(c(N)nc2cc1Cl)COC3)[C@@H]1COc2cc(C#Cc3cnn(C4CC4)c3)ccc21` [Compound 43A, (S)-4-amino-7-chloro-N-(6-((1-cyclopropyl-1H-pyrazol-4-yl)ethynyl)-2,3-dihydrobenzofuran-3-yl)-N-methyl-1,3-dihydrofuro[3,4-c]quinoline-8-carboxamide], the concentration for half-maximal inhibition (IC50) in the data set with wild-type HCT-116 cells was 0.646 µM; on CYP450 enzyme 3A4 (setting [1]), greater than 30 µM; on CYP450 enzyme 3A4 (setting [2]), greater than 30 µM. Moreover, the AUC(0-t) came out at 32300 ± 3340 ng·h/mL in the data set “PK experiment in mice” (female, BALB/c) and 9650 ± 1170 ng·h/mL in “PK experiment in rats”. The Cmax amounted to 3420 ± 913 ng/mL in “PK experiment in mice” (female, BALB/c) and 1220 ± 417 ng/mL in the data set “PK experiment in rats”.
